Data on six compounds can be found in patent US20220133687A1, “METHODS OF TREATING AND PREVENTING NEURODEGENERATIVE DISEASES WITH HGF ACTIVATING COMPOUNDS” (Synaptogenix, Inc., priority 2020, published 2022).

The test system of assay [1] is PKC. As to conditions: cited from earlier work.
Assay [2] concerns PKC-ε. The assay can be described thus: Mouse dosing study: brain PKC-ε downregulation. Type of assay: in vivo. Conditions: mice, 25 μg/m^2 three consecutive weekly doses vs lower doses. An excerpt:
(§1) The following metrics may be used to evaluate dosing regimens: induction of brain postsynaptic anchoring protein PSD-95, upregulation of BDNF levels in brain, upregulation of HGF levels in brain, minimal downregulation of PKC-c levels, and elevation of brain and plasma concentrations of bryostatin or other HGF activating compound. Groups of 2-3 mice may be formed and housed in an approved research animal facility. Water may be given ad libitum. A first study involves three groups of mice with animals in each group dosed weekly for 1, 2, 3, or 6 consecutive weeks. Each group has its own control group containing the same number of mice. For example, mice in the first, second and third groups may receive an intravenous (i.v.) injection of 10 μg/m^2, 15 μg/m^2, and 25 μg/m^2 dose of bryostatin or other HGF activating compound respectively. For each dose, mice in that group may receive a single injection of bryostatin or other HGF activating compound weekly for a predetermined number of consecutive weeks. Following dosing, mice are sacrificed and the blood and brain of each animal is collected for further analysis.
A similar observation can be made concerning the levels of the synaptogenesis marker PSD-95. […] Continued weekly dosing at 10 μg/m^2 for another three consecutive weeks (total of 6 consecutive weeks) may result in downregulation. […]

Assay [3] deals with PSD-95. Kind of assay: Mouse dosing study: PSD-95 levels. Conditions: mice, 25 μg/m^2 i.v. once per week, after three weeks. The class given is in vivo.
Excerpt: as §1
A similar observation can be made concerning the levels of the synaptogenesis marker PSD-95. […] Continued weekly dosing at 10 μg/m^2 for another three consecutive weeks (total of 6 consecutive weeks) may result in downregulation.

Assay [4] deals with BDNF. The assay can be described thus: Mouse dosing study: brain BDNF levels. The class given is in vivo. As to conditions: mice.
Excerpt: as §1
At a dose of 25 μg/m^2, the levels of brain BDNF may increase with each successive week of dosing, that is, brain BDNF levels may be greatest after three consecutive weeks of dosing. […]

The target of assay [5] is T1, PKC.
T1 construct: rows headed: Ki for PKC
Conditions: competition with [3H] phorbol dibutyrate; cited from earlier work.

Assay [6] deals with squamous cell carcinoma and melanoma. Conditions: used topically; cited from earlier work.
Assay [7] relates to NCI 60 cell line screen. Conditions: cited from earlier work.
In assay [8] the target is protein kinase C. Conditions: (−)-enantiomer; read-out: potency EC50; cited from earlier work.

Structures are written as SMILES. Like-named read-outs stand apart in the source and are kept apart here.

Regarding `CCCCCCCC(=O)O[C@H]1/C(=C/C(=O)OC)C[C@H]2C[C@H](CO)OC(=O)C[C@H](O)C[C@@H]3CCC[C@H](C[C@@H]4CCO[C@H](/C=C/C(C)(C)[C@]1(O)O2)O4)O3` [Analog 1], in assay [1], the “affinity for PKC (in words)” value is “highest affinity for PKC”. The Ki in assay [1] (read-out: PKC Affin) was 0.25 nM.
Take `CCC/C=C/C=C/C(=O)O[C@H]1/C(=C/C(=O)OC)C[C@H]2C[C@H]([C@@H](C)O)OC(=O)C[C@H](O)C[C@@H]3C[C@H](OC(C)=O)C(C)(C)[C@](O)(C[C@@H]4C/C(=C/C(=O)OC)C[C@H](/C=C/C(C)(C)[C@]1(O)O2)O4)O3` [Bryostatin-1]: the “PKC-ε downregulation in brain” value in assay [2] is recorded as “may not produce more PKC-c downregulation”. For the same compound, the “amounts of PSD-95 in brain and blood samples” value in assay [3] is “higher amounts of PSD-95”. Moreover, the “levels of brain BDNF” value was “some increase” in assay [4] (15 μg/m^2 weekly for three consecutive weeks) and “maximum increase” in assay [4] (25 μg/m^2 weekly).
On to `CC1=C[C@]23C(=O)[C@@H](C=C(COC(=O)c4ccccc4)[C@@H](O)[C@]2(O)[C@H]1OC(=O)c1ccccc1)[C@H]1[C@@H](C[C@H]3C)C1(C)C` [Ingenol 3,20-dibenzoate], for which the Ki in assay [5] was 240 nM.
With `C/C=C(/C)C(=O)O[C@H]1C(C)=C[C@]23C(=O)[C@@H](C=C(CO)[C@@H](O)[C@]12O)[C@H]1[C@@H](C[C@H]3C)C1(C)C` [Ingenol-3-angelate], the antitumor activity entry in assay [6] was “exhibits antitumor activity”.
Take `CC1=CC[C@H](C)C(C)(C)[C@@H]1/C=C/C(C)=C/CC[C@@]1(CO)[C@H](CCCO)/C(=C(/C)C=O)CC[C@]1(C)O` [Iripallidal]: in assay [7], the “GI50 (concentration required to inhibit growth by 50%)” value is given as “micromolar to nanomolar range”.
Regarding `CCCCCCCCc1ccc2c3c(c[nH]c13)C[C@@H](CO)NC(=O)[C@H](C(C)C)N2C` [Octylindolactam V], in assay [8], the EC50 was 29 nM.
